These results are taken from paper PMC6083693, “Ligand-based pharmacophore model for the discovery of novel CXCR2 antagonists as anti-cancer metastatic agents” (Royal Society Open Science, 2018).

As a reminder, the IC50 is the concentration at which inhibition is half-maximal.

Holding throughout (type): cell-based
Series [1] deals with T1, CXCR2 (Homo sapiens, UniProt P25025).
T1 construct: expressed in transfected cells; host or cells: HEK293 cells stably expressing Gα16 and CXCR2
T1 sequence (P25025 1-360): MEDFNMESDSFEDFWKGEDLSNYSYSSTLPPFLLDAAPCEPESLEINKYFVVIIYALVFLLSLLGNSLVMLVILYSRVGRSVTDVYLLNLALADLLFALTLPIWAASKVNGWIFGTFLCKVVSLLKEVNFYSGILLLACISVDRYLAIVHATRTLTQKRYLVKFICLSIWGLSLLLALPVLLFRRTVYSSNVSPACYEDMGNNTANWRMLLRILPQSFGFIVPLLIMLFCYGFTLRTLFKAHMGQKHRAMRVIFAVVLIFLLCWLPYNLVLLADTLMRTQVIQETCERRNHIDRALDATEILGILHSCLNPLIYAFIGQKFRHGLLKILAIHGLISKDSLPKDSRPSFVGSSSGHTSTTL
In words: CXCR2 antagonistic activity assay (IL-8-induced intracellular calcium change, Fluo-4 AM, HEK293 cells stably expressing Gα16 and CXCR2). Particulars: for CXCR2 antagonistic activity (in words): HEK293 cells expressing Gα16 and CXCR2. As to the method: Human embryonic kidney 293 (HEK293) cells stably expressing Gα16 and CXCR2 were seeded onto 96-well plates and incubated for 24 h. Cells were loaded with 2 µmol l^−1 Fluo-4 AM in Hank's balanced salt solution (HBSS, containing KCl 5.4 mmol l^−1, Na2HPO4 0.3 mmol l^−1, KH2PO4 0.4 mmol l^−1, NaHCO3 4.2 mmol l^−1, CaCl2 1.3 mmol l^−1, MgCl2 0.5 mmol l^−1, Mg2SO4 0.6 mmol l^−1, NaCl 137 mmol l^−1, BSA 5 g l^−1, glucose 5.6 mmol l^−1 and sulfinpyrazone 250 µmol l^−1, pH 7.4) at 37°C for 45 min. The excess dye was removed and 50 µl of HBSS containing test compounds was added. After incubation at room temperature for 10 min, 25 µl of HBSS containing IL-8 was dispensed into the well using a FlexStation II microplate reader (Molecular Devices, Sunnyvale, CA, USA), and intracellular calcium change was recorded with an excitation wavelength of 485 nm and an emission wavelength of 525 nm. The half maximal inhibitory concentrations (IC50) of compounds were determined with the […] PRISM software by constructing their dose–response curves.

The test system of series [2] is NCI-H1299 cells. In words: Anti-proliferation assay (MTT). Particulars: NCI-H1299, 0.1, 1, 10 and 100 µg ml^−1, 72 h. As to the method:
NCI-H1299 cells (provided by Tumor Pharmacology and Endocrine Laboratory, College of Pharmaceutical Sciences, Zhe Jiang University) were seeded in 96-well plates at a density of 4000 cells well^−1. After 24 h of adherence, cells were incubated with medium alone or medium containing test compounds for 72 h. Four different concentrations (100, 10, 1 and 0.1 µg ml^−1) of both antagonists were used. Cell proliferation was determined by the thiazolyl blue tetrazolium bromide (MTT) assay. Growth inhibition was calculated as % = [1 − (A/B)] × 100, where A and B were the absorbance of treated and untreated cells, respectively.
The highly metastatic NCI-H1299 lung cancer cell line was selected for the following in vitro biological evaluation.

For series [3], the system named is NCI-H1299 cells. The series can be described thus: Wound healing assay (cell migration). Particulars: Homo sapiens; NCI-H1299, 50 µg ml^−1, 48 h treatment; read-out: cell migration inhibitory rate. As to the method: NCI-H1299 cells (5 × 10^5 cell well^−1) were seeded in a six-well tissue culture plate and grown to 90% confluence. After the medium was removed, a gap with constant width was created in the centre of the cell well by scratching the monolayer with a sterile yellow micropipette tip. […] The wound closure was monitored and photographed at 0, 12, 24, 36 and 48 h with the IMAGEPRO software. The cell migration inhibitory rate was calculated as % = [1 − (0 h wound area − 12, 24, 36 or 48 h wound area)/0 h wound area] × 100.
The wound area was calculated with the IMAGEPRO software.

Setting [4] is: HEK293 cells expressing Gα16 and CXCR2, IL-8 stimulated calcium change, read-out: CXCR2 IC50.

SMILES strings stand for the structures. Where two headings read alike, the source gives them in different places.

Regarding `CC(C)S(=O)(=O)c1c(Cl)ccc(Nc2nnc(-c3ccccc3)[nH]2)c1O` [Compound 1e, 3-chloro-2-(isopropylsulfonyl)-6-((5-phenyl-4H-1,2,4-triazol-3-yl)amino)phenol], in series [1], the IC50 worked out at 14.8 µM. In series [2], the “cytotoxicity (growth inhibition, MTT)” value is on record as “no cytotoxicity”. Also, the inhibition at 50 µg/mL in series [3] stood at 72%.

For `CN(C)C(=O)c1cccc(Nc2nnc(-c3ccccc3)[nH]2)c1O` [Compound 1a, 2-hydroxy-N,N-dimethyl-3-((5-phenyl-4H-1,2,4-triazol-3-yl)amino)benzamide], the IC50 in series [1] (setting [4]) is 76 µM. `CN(C)C(=O)c1cccc(Nc2nccc(Nc3ccccc3)n2)c1O` [Compound 2, 2-hydroxy-N,N-dimethyl-3-((4-(phenylamino)pyrimidin-2-yl)amino)benzamide]: the “CXCR2 antagonistic activity (in words)” value in series [1] was “loss of CXCR2 antagonistic activity”. In series [1] (setting [4]), the IC50 is above 100 µM.

`CN(C)C(=O)c1cccc(Nc2nn(Cc3ccccc3)c(=O)[nH]2)c1O` [Compound 3, 3-((1-benzyl-5-oxo-4,5-dihydro-1H-1,2,4-triazol-3-yl)amino)-2-hydroxy-N,N-dimethylbenzamide]: the “CXCR2 antagonistic activity (in words)” value in series [1] was “loss of CXCR2 antagonistic activity”. In series [1] (setting [4]), the IC50 is above 100 µM.

On to `N#Cc1ccc(Nc2nnc(-c3ccccc3)[nH]2)c(O)c1` [Compound 1b, 3-hydroxy-4-((5-phenyl-4H-1,2,4-triazol-3-yl)amino)benzonitrile], for which the IC50 in series [1] (setting [4]) turned out to be 18.5 µM. Consider `N#Cc1ccc(Nc2nnc(-c3ccc(C(F)(F)F)cc3)[nH]2)c(O)c1` [Compound 1d, 3-hydroxy-4-((5-(4-(trifluoromethyl)phenyl)-4H-1,2,4-triazol-3-yl)amino)benzonitrile], for which the IC50 in series [1] (setting [4]) is above 100 µM.

As for `N#Cc1ccc(Nc2nnc(-c3ccccc3Br)[nH]2)c(O)c1` [Compound 1c, 4-((5-(2-bromophenyl)-4H-1,2,4-triazol-3-yl)amino)-3-hydroxybenzonitrile], the IC50 in series [1] (setting [4]) was found to be 25.4 µM.
